Measured values reported in ChEMBL document CHEMBL1150287.

What follows are compounds tested against Sodium-dependent serotonin transporter (Homo sapiens) (UniProt P31645). Conditions: COS-7, at 100 nM.
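Note: measures inhibition of [3H]5-hydroxytryptamine uptake through human SERT expressed in COS-7 cells.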
Description: Inhibition of [3H]5-hydroxytryptamine reuptake at human SERT expressed in african green monkey COS7 cells at 100 nM

Sodium-dependent serotonin transporter (Homo sapiens), sequence (P31645 whole entry, looked up): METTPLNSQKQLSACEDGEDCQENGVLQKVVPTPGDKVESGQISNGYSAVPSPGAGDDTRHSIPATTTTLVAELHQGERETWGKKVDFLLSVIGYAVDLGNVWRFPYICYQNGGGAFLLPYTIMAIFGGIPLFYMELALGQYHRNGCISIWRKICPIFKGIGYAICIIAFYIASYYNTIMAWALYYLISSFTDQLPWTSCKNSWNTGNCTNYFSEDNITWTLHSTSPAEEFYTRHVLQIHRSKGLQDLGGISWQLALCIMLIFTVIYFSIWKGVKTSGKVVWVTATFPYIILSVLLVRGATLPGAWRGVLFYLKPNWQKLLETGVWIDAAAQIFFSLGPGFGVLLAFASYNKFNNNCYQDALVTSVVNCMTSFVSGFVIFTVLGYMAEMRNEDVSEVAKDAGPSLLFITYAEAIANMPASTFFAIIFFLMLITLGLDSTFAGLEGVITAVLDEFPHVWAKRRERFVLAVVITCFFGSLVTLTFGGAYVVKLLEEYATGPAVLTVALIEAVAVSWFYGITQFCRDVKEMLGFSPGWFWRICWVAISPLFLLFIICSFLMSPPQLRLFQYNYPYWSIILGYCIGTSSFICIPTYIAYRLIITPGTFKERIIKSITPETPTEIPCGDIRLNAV

Row | SMILES | inhibition [%]
1 | CNCCC(Oc1ccccc1OC)c1ccccc1 (stereo unspecified) | 12.8
2 | CN(C)CCCC1(c2ccc(F)cc2)OC(C)(C)c2ccccc21 (stereo unspecified) | 0.71
3 | CNCCCC1(c2ccccc2)OCc2ccccc21 (stereo unspecified) | 9.76
4 | CN(C)CCCC1(c2ccccc2)OC(C)(C)c2ccccc21 (stereo unspecified) | 0.31
5 | CN(C)CCCC1(c2ccc(F)cc2)OC(C)(C)c2cc(C#N)ccc21 (stereo unspecified) | 0.74
6 | CN(C)CCCC1(c2ccccc2)OC(C)(C)c2cc(C#N)ccc21 (stereo unspecified) | 0.69
7 | CNCCCC1(c2ccccc2)OC(C)(C)c2cc(C#N)ccc21 (stereo unspecified) | 7.23
8 | CN(C)CCCC1(c2ccccc2)OCc2ccccc21 (stereo unspecified) | 8.66
9 | CNCCCC1(c2ccc(F)cc2)OC(C)(C)c2cc(C#N)ccc21 (stereo unspecified) | 6.56
10 | CNCCCC1(c2ccc(F)cc2)OCc2cc(C#N)ccc21 (stereo unspecified) | 55.5
11 | CN(C)CCCC1(c2ccccc2)OCc2cc(C#N)ccc21 (stereo unspecified) | 27.4
12 | CNCCCC1(c2ccccc2)OC(C)(C)c2ccccc21 (stereo unspecified) | 1.65
13 | CNCCCC1(c2ccc(F)cc2)OCc2ccccc21 (stereo unspecified) | 20.8
14 | CNCCCC1(c2ccc(F)cc2)OC(C)(C)c2ccccc21 (stereo unspecified) | 3.89
15 | CNCCCC1(c2ccccc2)OCc2cc(C#N)ccc21 (stereo unspecified) | 53.9
16 | CN(C)CCCC1(c2ccc(F)cc2)OCc2ccccc21 (stereo unspecified) | 26.6
